Measurements reported in patent USRE41226E1, “Compounds having reversible inhibiting activity of carnitine palmitoyl-transferase” (Sigma-Tau Industrie Farmaceutiche Riunite S.p.A., priority 1998, dated 2010).

Experiments:
24 hours-starved rats = experiment: Glucose and β-hydroxybutyrate in serum of fasted rats treated with CPT inhibitors; type: in vivo, Fischer rats; conditions: one hour after intraperitoneal treatment, ST1326 14.5 mg/2 ml/kg, others equivalent dose
Experimental: Normally fed Fischer rats were starved for 24 hours and subsequently treated with the test compounds. One hour after the treatment, the animals were sacrificed and serum concentrations of glucose and β-hydroxybutyrate were determined.
For the compound ST1326 were used doses of 14.5 mg/2 ml/kg, for other test compounds, the doses are equivalent to ST1326 one.

[1] = test system: β-hydroxybutyrate production in rat hepatocytes; experiment: Oleate-stimulated β-hydroxybutyrate production in rat hepatocytes; type: cell-based; conditions: 40 min incubation, then oleate 1 mM for 20 min, mean of three experiments, read-out: IC50 of inhibition CPTI curve of β-hydroxybutyrate production in rat hepatocytes
Experimental: β-hydroxybutyrate production is an index of CPT activity. In fact, the production of ketone bodies, final products of mitochrondrial β-oxidation, is related to CPT activity.
Mitocondrial preparations, obtained according to the method by Venerando et al. (Am. J. Physiol. 266:C455-C461, 1994), were used. Hepatocytes are incubated at 37° C. in KRB bicarbonate buffer at pH 7.4, 6 mM glucose, 1% BSA in O2/CO2 95/5 atmosphere at 2.5×10^6 cells/ml. After 40 min incubation with the test compound at different concentrations, the first set of samples was taken (T0 min) and oleate was added (1 mM final in KRB+BSA 1.4%). After 20 minutes, the second withdrawal was made (T20 min)
The data are the mean of three different experiments, twice carried out.

CPTI = biological target: T1, CPTI (Rattus norvegicus, UniProt P32198); experiment: Determination of CPT inhibiting activity in rat liver mitochondria; type: biochemical, Fischer rat; conditions: 50 μM [14C] palmitoyl-CoA, 10 mM L-carnitine, 37° C., 1 minute, read-out: IC50 of inhibition CPTI curve in rat liver mitochondria
T1 construct: Mitochondria were isolated from liver or heart and suspended in 75 mM saccharose buffer; from tissue; host or cells: liver mitochondria of normally fed Fischer rats
T1 sequence (P32198 1-773): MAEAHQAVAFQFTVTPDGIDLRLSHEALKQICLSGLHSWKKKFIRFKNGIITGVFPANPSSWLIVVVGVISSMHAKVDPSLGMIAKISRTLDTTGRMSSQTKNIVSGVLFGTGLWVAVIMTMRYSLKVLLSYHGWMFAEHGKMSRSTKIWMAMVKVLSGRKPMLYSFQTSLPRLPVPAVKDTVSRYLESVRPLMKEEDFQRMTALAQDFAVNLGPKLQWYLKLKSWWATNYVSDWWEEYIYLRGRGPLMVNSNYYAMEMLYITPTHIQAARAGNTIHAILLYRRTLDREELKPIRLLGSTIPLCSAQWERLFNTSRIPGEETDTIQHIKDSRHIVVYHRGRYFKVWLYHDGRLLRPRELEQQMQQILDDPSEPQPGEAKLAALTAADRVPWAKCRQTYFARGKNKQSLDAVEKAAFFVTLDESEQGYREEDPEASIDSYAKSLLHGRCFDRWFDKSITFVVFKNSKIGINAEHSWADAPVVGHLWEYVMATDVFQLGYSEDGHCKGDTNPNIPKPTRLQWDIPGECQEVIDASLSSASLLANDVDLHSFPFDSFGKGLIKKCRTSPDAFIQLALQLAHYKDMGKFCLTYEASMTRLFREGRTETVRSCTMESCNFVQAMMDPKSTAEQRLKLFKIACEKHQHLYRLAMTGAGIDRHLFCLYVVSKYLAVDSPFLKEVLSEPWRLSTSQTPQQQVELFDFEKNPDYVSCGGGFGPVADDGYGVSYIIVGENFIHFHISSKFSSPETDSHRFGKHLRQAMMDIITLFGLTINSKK
Experimental: CPT inhibition was evaluated essentially as described in Kerner, J. & Bieber, L. L. (1990) Biochemistry 29: 4326-34 on fresh mitochrondrial preparation obtained from normally fed Fischer rat liver or heart. Mitochondria were isolated from liver or heart and suspended in 75 mM saccharose buffer, 1 mM EGTA, pH 7.5. 100 μl mitochrondrial suspension, containing 50 μM [^14C] palmitoyl-CoA (specific activity […]) and 10 mM L-carnitine, were incubated at 37° C., in the presence of scalar concentrations of the test product (0-3 mM). Reaction time: 1 minute.

fed with high-fat diet = experiment: Glucose and insulin levels in diabetic animals (high-fat diet) treated with CPT inhibitors; type: in vivo, C57BL/6J male rats; conditions: 45 mg/Kg p.o. twice a day, after 20 days of treatment
Experimental: C57BL/6J male […], 5-weeks old, were provided by Ch. River. After 10 days of acclimatisation in standard conditions (22±2° C.; 55±15% humidity; 15-20/h air changes; 12 hours light-dark cycle, with 700-1900 lux) and with standard diet with 4RF21 feedstock (Mucedola), glycaemia was controlled in post-absorption state (starving from 8.30 a.m. to 4.30 p.m.). Blood withdrawal was carried out cutting the tail end. Glucose was analyzed in blood acid supernatant (HCLO4 0,375 N) with autoanalyzer Cobas Mira S with Glucose GDH Kit (Roche).
The animals were divided in two groups, 26 mice each and fed with a high-fat and a low-fat diet, respectively.
After 2 months from the start of the diet, glycaemia was tested, according to the starrting method. After about 3 months from the start of the diet, glycaemia was tested, according to the starting method and plasma insulin levels were also determined (with blood withdrawal from end tail cutting) using [125I] Rat Insulin Kit (Amersham).
One 10 mice group fed with low-fat diet and two 10-mice groups fed with the high-fat diet were selected. One of the two high fat diet was administered with ST 1327 at the dose of 45 mg/Kg in deionised H2O (p.o., twice a day, 8.30 a.m. and 5.30 p.m.).administration volume was 10 ml/Kg, the two remaining groups were treated with vehicle only. High-fat or low-fat diets were continued during the treatment.
After 20 days of treatment, glycaemia and plasma insulin were measured. After 43 days of treatment, the animals were sacrificed by decapitation in post-absorption state (fasting 8.30 a.m.-4.30 p.m.), 8 hours after the last treatment. Blood was withdrawn and serum was separated by centrifugation and stored at −80° C. Liver, heart and skeletal muscle (upper limbs) were also extracted, frozen in dry ice-acetone and kept at −80° C.

[2] = test system: hearts perfused according to Langendorff technique; experiment: Myocardial ischemia: LDH release from Langendorff-perfused rat hearts (ischemia/reperfusion); set-up: species or system male Wistar rats
Experimental: To this end, male Wistar rats, weighing 200-225 g, provided by Charles-River, were kept at constant temperature of 23°+/−1° C., 50+/−10% relative humidity, 12 hours light-dark cycle, fed with pellet 4RF21 (Mucedola) tap water ad libitum.
The amimals were anaesthetised with sodium Pentobarbital at the dose of 70 mg/Kg i.p.. Hearts were rapidly removed and put in a cold Krebs-Henseleit solution, before incannulation of aorta e subsequent perfusion according to Langendorff technique at 37° C. with a pressure of 100 cm water.
Perfusion medium (Krebs-Henseleit) at pH 7.4 consists in: 128 mM NaCl, 4.7 mM KCl, 1 mM MgCl2, 0.4 mM Na2HP04, 20.2 mM NaHCO3, 1.3 mM CaCl2, 5 mM glucose. The medium was constantly oxygenated with carbogen (95% O2, 5% CO2).
After a 10 min “conditioning” period, hearts were perfused in a recirculant apparatus for 20 min. with the same medium containing 0.6 mM palmitate complexed with albumine (fraction V, fatty acid free), with or without the CPT inhibitor according to the present invention. By way of example ST 1364 was used at concentrations of 1 and 5 μM. After such a period ischemia was induced by reducing perfusion hydrostatic pressure from 100 cm to 20 cm for a period of 30 min. Reperfusion was started re-establishing the starting pressure conditions (100 cm).Hearts were controlled for 20 min. the inhibitor is present also during reperfusion phase.
Lactate dehydrogenases (LDH) release was monitored in the effluent in normal oxygenation conditions, during ischemia, with a withdrawal of medium at 30′, and during reperfusion, with withdrawals at 1.5, 10, 15 and 20 minutes.
Statistical analysis was carried out with Student's “t” test for non-paired data.
The number of the cases for each group is six (n=6).

| IC50 (CPTI) [µM] | SMILES | Glu (glucose) serum concentration, Mean (24 hours-starved rats) | β-OHB serum concentration, Mean (24 hours-starved rats) | IC50 [1] [nM] | further results |
| --- | --- | --- | --- | --- | --- |
| 17.4 | CCCCCCCCCCCCCCOP(=O)([O-])O[C@H](CC(=O)O)C[N+](C)(C)C [SDZ-CPI-975, reference compound] | 87.6 | 119.9 | 3700 | – |
| – | CCCCCCCCCNC(=O)NC(CC(=O)[O-])C[N+](C)(C)C (centres unmarked) [ST1251, R,S-4-trimethylammonium-3-(nonylcarbamoyl)aminobutyrate] | 76.9 | 99.8 | 500 | – |
| – | CCCCCCCCOC(=O)NC(CC(=O)O)C[N+](C)(C)C.[Cl-] (centres unmarked) [ST1253, R,S-4-trimethylammonium-3-(octyloxycarbonyl)-aminobutyrate chloride] | 88.2 | 118.8 | 900 | – |
| – | CCCCCCCCCOC(=O)NC(CC(=O)[O-])C[N+](C)(C)C (centres unmarked) [ST1285, R,S-4-trimethylammonium-3-(nonyloxycarbonyl)-aminobutyrate] | – | – | 1900 | – |
| 0.75 | CCCCCCCCCCCCCCNC(=O)N[C@H](CC(=O)[O-])C[N+](C)(C)C [ST1326, R-4-trimethylammonium-3-(tetradecylcarbamoyl)amino butyrate] | 84.2 | 133.1 | – | – |
| 3.2 | CCCCCCCCCCCNC(=O)N[C@H](CC(=O)[O-])C[N+](C)(C)C [ST1327, R-4-trimethylammonium-3-(undecylcarbamoyl)-aminobutyrate] | 84.9 | 93.0 | – | Glucose (fed with high-fat diet; High Fat diet Treated, p<0.001 against high fat diet): 181.4 ± 9.63 mg/dL; Insulin (fed with high-fat diet; High Fat diet Treated, p<0.01 against high fat diet): 0.621 ± 0.117 ng/mL; glucose levels (in words) (fed with high-fat diet; high-fat diet): significantly decreased; insulin levels (in words) (fed with high-fat diet; high-fat diet): significantly decreased |
| – | CCCCCCCNC(=O)N[C@H](CC(=O)[O-])C[N+](C)(C)C [ST1328, R-4-trimethylammonium-3-(heptylcarbamoyl)-aminobutyrate] | 79.5 | 169.2 | – | – |
| – | CCCCCCCCCCS(=O)(=O)NC(CC(=O)[O-])C[N+](C)(C)C (centres unmarked) [ST1364, R,S-4-trimethylammonium-3-(decansulfonyl)aminobutyrate] | – | – | – | LDH release in perfusate ([2]; 1 μM, Basal): 275 mU/ml/min; LDH release in perfusate ([2]; 1 μM, Ischemia 30′): 220 mU/ml/min; LDH release in perfusate ([2]; 1 μM, Reperfusion 1′): 480 mU/ml/min; LDH release in perfusate ([2]; 1 μM, Reperfusion 5′): 500 mU/ml/min; LDH release in perfusate ([2]; 1 μM, Reperfusion 10′): 495 mU/ml/min; LDH release in perfusate ([2]; 1 μM, Reperfusion 15′): 510 mU/ml/min; LDH release in perfusate ([2]; 1 μM, Reperfusion 20′): 580 mU/ml/min; LDH release in perfusate ([2]; 5 μM, Basal): 220 mU/ml/min; LDH release in perfusate ([2]; 5 μM, Ischemia 30′): 200 mU/ml/min; LDH release in perfusate ([2]; 5 μM, Reperfusion 1′): 410 mU/ml/min; LDH release in perfusate ([2]; 5 μM, Reperfusion 5′): 380 mU/ml/min; LDH release in perfusate ([2]; 5 μM, Reperfusion 10′): 380 mU/ml/min; LDH release in perfusate ([2]; 5 μM, Reperfusion 15′): 320 mU/ml/min; LDH release in perfusate ([2]; 5 μM, Reperfusion 20′): 325 mU/ml/min; LDH release in the effluent during reperfusion (in words) ([2]; 5 μM, with respect to the controls): significantly reduced |
